These results are taken from patent US9938258B2 (Karyopharm Therapeutics Inc., priority 2012, dated 2018).

The test system of one assay is Z138 cells. Briefly: MTT cell proliferation assay, Z138. Type of assay: cell-based. An outline of the steps: (§1)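 Read-out: MTT reduction to formazan, solubilised and measured at 490 nm after ~4 h with MTT; inhibition (%) = (1-(ODo/OD))×100 relative to negative control. Seeding was 5,000-10,000 cells/well with overnight attachment. Eight test concentrations spanned 1 nM-30 μM; mostly duplicate, mean ± SE.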
A general note: Formazan colour is commonly taken as a measure of viable cells.

The subject of another assay is MS751 cells. Briefly: MTT cell proliferation assay, MS751. Type of assay: cell-based, human. In short, it runs like this:
as §1

A further assay deals with 3T3 cells. The experiment in a line: MTT cell proliferation assay, 3T3. Type of assay: cell-based, mouse. In short, it runs like this: as §1
[1] abbreviates: Homo sapiens, Z-138, Z138 cells, approximately 64-72 hours incubation, read-out: MTT Assay IC50, Z138.
Where [2] appears, read: Homo sapiens, MS751, MS751 cells, approximately 64-72 hours incubation, read-out: MTT Assay IC50, MS751.
Where [3] appears, read: Mus musculus, NIH3T3, 3T3 cells, approximately 64-72 hours incubation, read-out: MTT Assay IC50, 3T3.
Where [4] appears, read: Homo sapiens, Z-138, Z138 cells, eight concentrations 1 nM to 30 μM, incubation approximately 64-72 hours, read-out: MTT Assay IC50, Z138.
The mark [5] stands for this setting: Homo sapiens, MS751, MS751 cells, eight concentrations 1 nM to 30 μM, incubation approximately 64-72 hours, read-out: MTT Assay IC50, MS751.
Setting [6] is: Mus musculus, NIH3T3, 3T3 cells, eight concentrations 1 nM to 30 μM, incubation approximately 64-72 hours, read-out: MTT Assay IC50, 3T3.

Where a name gives a salt, the structure may show the parent alone. Read-outs that look alike come from different tables or passages of the source.

A word on the IC50: it is the concentration that gives 50% inhibition. For the compound `Nc1ccc(/C=C/C(=O)NCC2Cc3cc(-c4cc(F)c(C(=O)N5CC(F)(F)C5)c(F)c4)cc(Cl)c3O2)cn1` (stereo not drawn) [Compound 335, (E)-3-(6-aminopyridin-3-yl)-N-((7-chloro-5-(4-(3,3-difluoroazetidine-1-carbonyl)-3,5-difluorophenyl)-2,3-dihydrobenzofuran-2-yl)methyl)acrylamide], the IC50 with Z138 cells (setting [1]) was < 0.1 µM; in the assay on MS751 cells (setting [2]) it was < 0.1 µM; in the assay on 3T3 cells (setting [3]), 0.1 to 5 µM.

`CC(=O)c1ccc(-c2cc(Cl)c3c(c2)CC(CNC(=O)/C=C/c2ccccn2)O3)s1` (stereo not drawn) [Compound 103, (E)-N-((5-(5-acetylthiophen-2-yl)-7-chloro-2,3-dihydrobenzofuran-2-yl)methyl)-3-(pyridin-2-yl)acrylamide]: the IC50 in the assay with Z138 cells (setting [4]), in the assay on MS751 cells (setting [5]) and with 3T3 cells (setting [6]) was > 30 µM each time.

Take `CC1(C)COCCN1C(=O)c1ccc(-c2cc(Cl)c3c(c2)CC(/C=C/C(=O)NCc2ccc(N)nc2)O3)nc1` (stereo not drawn) [Compound 368, (E)-N-((6-aminopyridin-3-yl)methyl)-3-(7-chloro-5-(5-(3,3-dimethylmorpholine-4-carbonyl)pyridin-2-yl)-2,3-dihydrobenzofuran-2-yl)acrylamide]: the figures for the IC50 in the assay on Z138 cells (setting [1]), in the assay on MS751 cells (setting [2]) and in the assay with 3T3 cells (setting [3]) were < 0.1 µM, < 0.1 µM and 0.1 to 5 µM, respectively.

Regarding `CC(=O)c1ccc(-c2cc(Cl)c3c(c2)CC(CNC(=O)/C=C/c2cc(C)n(-c4nccs4)c2C)O3)s1` (stereo not drawn) [Compound 285, (E)-N-((5-(5-Acetylthiophen-2-yl)-7-chloro-2,3-dihydrobenzofuran-2-yl)methyl)-3-(2,5-dimethyl-1-(thiazol-2-yl)-1H-pyrrol-3-yl)acrylamide], the IC50 with Z138 cells (setting [1]), with MS751 cells (setting [2]) and in the assay with 3T3 cells (setting [3]) was > 30 µM each time.

As for `CC(=O)c1ccc(-c2cc(Cl)c3c(c2)CC(CNC(=O)/C=C(/C)c2cccnc2)O3)s1` (stereo not drawn) [Compound 282, (Z)-N-((5-(5-Acetylthiophen-2-yl)-7-chloro-2,3-dihydrobenzofuran-2-yl)methyl)-3-(pyridin-3-yl)but-2-enamide], the figures for the IC50 in the assay with Z138 cells (setting [1]), in the assay on MS751 cells (setting [2]) and in the assay with 3T3 cells (setting [3]) were 0.1 to 5 µM, 0.1 to 5 µM and > 30 µM, respectively.

Regarding `CC(=O)c1ccc(-c2cc(Cl)c3c(c2)CC(CNC(=O)/C=C/c2nc4ccccc4o2)O3)s1` (stereo not drawn) [Compound 290, (E)-N-((5-(5-acetylthiophen-2-yl)-7-chloro-2,3-dihydrobenzofuran-2-yl)methyl)-3-(benzo[d]oxazol-2-yl)acrylamide], the IC50 in the assay on Z138 cells (setting [1]), in the assay on MS751 cells (setting [2]) and with 3T3 cells (setting [3]) was > 30 µM in each case.

Take `CC(=O)c1ccc(-c2cc(Cl)c3c(c2)CC(CNC(=O)/C=C/c2c(C)noc2C)O3)s1` (stereo not drawn) [Compound 147, (E)-N-((5-(5-acetylthiophen-2-yl)-7-chloro-2,3-dihydrobenzofuran-2-yl)methyl)-3-(3,5-dimethylisoxazol-4-yl)acrylamide]: the results for the IC50 in the assay with Z138 cells (setting [4]), in the assay with MS751 cells (setting [5]) and with 3T3 cells (setting [6]) were 0.1 to 5 µM, 0.1 to 5 µM and > 30 µM, respectively.

Consider `CC(=O)c1ccc(-c2cc(Cl)c3c(c2)CC(CNC(=O)/C=C/c2cccnn2)O3)s1` (single isomer, unassigned) [Compound 317, (E)-N-((5-(5-acetylthiophen-2-yl)-7-chloro-2,3-dihydrobenzofuran-2-yl)methyl)-3-(pyridazin-3-yl)acrylamide], for which the figures for the IC50 in the assay on Z138 cells (setting [1]), in the assay with MS751 cells (setting [2]) and with 3T3 cells (setting [3]) were 0.1 to 5 µM, 0.1 to 5 µM and > 30 µM, respectively.

Take `CS(=O)(=O)c1cccc(-c2cc(Cl)c3c(c2)CC(CNC(=O)/C=C/c2cccnc2)O3)c1` (stereo not drawn) [Compound 80, (E)-N-((7-chloro-5-(3-(methylsulfonyl)phenyl)-2,3-dihydrobenzofuran-2-yl)methyl)-3-(pyridin-3-yl)acrylamide]: the IC50 in the assay on Z138 cells (setting [4]), in the assay on MS751 cells (setting [5]) and in the assay with 3T3 cells (setting [6]) was 0.1 to 5 µM in each case.

With `Nc1ccc(/C=C/C(=O)NCC2Cc3cc(-c4ccc(C(=O)N5CCNCC5)nc4)cc(Cl)c3O2)cn1` (stereo not drawn) [Compound 342, (E)-3-(6-aminopyridin-3-yl)-N-((7-chloro-5-(6-(piperazine-1-carbonyl)pyridin-3-yl)-2,3-dihydrobenzofuran-2-yl)methyl)acrylamide], the figures for the IC50 in the assay on Z138 cells (setting [1]), with MS751 cells (setting [2]) and in the assay with 3T3 cells (setting [3]) were > 30 µM, 0.1 to 5 µM and 0.1 to 5 µM, respectively.

On to `Nc1ccc(/C=C/C(=O)NCC2Cc3cc(-c4ccc(C(=O)N5CCOCC5)cc4)cc(O)c3O2)cn1` (stereo not drawn) [Compound 347, (E)-3-(6-aminopyridin-3-yl)-N-((7-hydroxy-5-(4-(morpholine-4-carbonyl)phenyl)-2,3-dihydrobenzofuran-2-yl)methyl)acrylamide], for which the values for the IC50 in the assay on Z138 cells (setting [1]), with MS751 cells (setting [2]) and in the assay with 3T3 cells (setting [3]) were > 30 µM, 0.1 to 5 µM and 0.1 to 5 µM, respectively.

On to `Nc1ccc(/C=C/C(=O)NCC2Cc3cc(-c4ccc(C(=O)N5CC(F)(F)C5)c(F)c4)cc(Cl)c3O2)cn1` (stereo not drawn) [Compound 336, (E)-3-(6-aminopyridin-3-yl)-N-((7-chloro-5-(4-(3,3-difluoroazetidine-1-carbonyl)-3-fluorophenyl)-2,3-dihydrobenzofuran-2-yl)methyl)acrylamide], for which the IC50 in the assay with Z138 cells (setting [1]) was < 0.1 µM; in the assay with MS751 cells (setting [2]) it was < 0.1 µM; in the assay on 3T3 cells (setting [3]), 0.1 to 5 µM.

`Nc1ccc(/C=C/C(=O)NCC2Cc3cc(-c4cc(F)c(C(=O)N5CCOCC5)cc4F)cc(Cl)c3O2)cn1` (stereo not drawn) [Compound 328, (E)-3-(6-Aminopyridin-3-yl)-N-((7-chloro-5-(2,5-difluoro-4-(morpholine-4-carbonyl)phenyl)-2,3-dihydrobenzofuran-2-yl)methyl)acrylamide]: the figures for the IC50 with Z138 cells (setting [1]), in the assay with MS751 cells (setting [2]) and with 3T3 cells (setting [3]) were < 0.1 µM, < 0.1 µM and 0.1 to 5 µM, respectively.

With `CC(=O)c1ccc(-c2cc(Cl)c3c(c2)CC(CNC(=O)/C=C/c2ccn(C)c2)O3)s1` (stereo not drawn) [Compound 213, (E)-N-((5-(5-acetylthiophen-2-yl)-7-chloro-2,3-dihydrobenzofuran-2-yl)methyl)-3-(1-methyl-1H-pyrrol-3-yl)acrylamide], the IC50 in the assay on Z138 cells (setting [1]), with MS751 cells (setting [2]) and in the assay with 3T3 cells (setting [3]) was > 30 µM in each case.

Take `CC(=O)c1ccc(-c2cc(Cl)c3c(c2)CC(CNC(=O)/C=C/c2cccnc2)O3)s1` (stereo not drawn) [Compound 122, (E)-N-((5-(5-acetylthiophen-2-yl)-7-chloro-2,3-dihydrobenzofuran-2-yl)methyl)-3-(pyridin-3-yl)acrylamide]: the IC50 with Z138 cells (Z138 cells, eight concentrations 1 nM to 30 μM, incubation approximately 64-72 hours, read-out: MTT Assay IC50, Z138) lay within 0.1 to 5 µM; in the assay on MS751 cells (MS751 cells, eight concentrations 1 nM to 30 μM, incubation approximately 64-72 hours, read-out: MTT Assay IC50, MS751), 0.1 to 5 µM; with 3T3 cells (3T3 cells, eight concentrations 1 nM to 30 μM, incubation approximately 64-72 hours, read-out: MTT Assay IC50, 3T3), 0.1 to 5 µM.

In the case of `CC(=O)c1ccc(-c2cc(Cl)c3c(c2)CC(CNC(=O)/C=C/c2ccc(N)nc2)O3)s1` (single isomer, unassigned) [Compound 308, (E)-N-((5-(5-acetylthiophen-2-yl)-7-chloro-2,3-dihydrobenzofuran-2-yl)methyl)-3-(6-aminopyridin-3-yl)acrylamide], the IC50 in the assay with Z138 cells (setting [1]) fell in the range of 0.1 to 5 µM; in the assay on MS751 cells (setting [2]) it was 0.1 to 5 µM; in the assay on 3T3 cells (setting [3]), 5 to 30 µM.

With `CC(=O)c1ccc(-c2cc(Cl)c3c(c2)CC(CNC(=O)/C=C/c2cncc(F)c2)O3)s1` (stereo not drawn) [Compound 298, (E)-N-((5-(5-acetylthiophen-2-yl)-7-chloro-2,3-dihydrobenzofuran-2-yl)methyl)-3-(5-fluoropyridin-3-yl)acrylamide], the IC50 in the assay on Z138 cells (setting [1]) is 0.1 to 5 µM; in the assay with MS751 cells (setting [2]), > 30 µM; with 3T3 cells (setting [3]) it was > 30 µM.

Take `COc1cccc(-c2cc(Cl)c3c(c2)CC(CNC(=O)/C=C/c2cccnc2)O3)c1F` (stereo not drawn) [Compound 39, (E)-N-((7-chloro-5-(2-fluoro-3-methoxyphenyl)-2,3-dihydrobenzofuran-2-yl)methyl)-3-(pyridin-3-yl)acrylamide]: the IC50 in the assay with Z138 cells (setting [4]), with MS751 cells (setting [5]) and in the assay with 3T3 cells (setting [6]) was 0.1 to 5 µM in each case.

As for `[2H]C1([2H])c2cc(-c3ccc(C(=O)N4CCOCC4)cc3)cc(Cl)c2OC1CNC(=O)/C=C/c1ccc(N)nc1` (stereo not drawn) [Compound 365, (E)-3-(6-aminopyridin-3-yl)-N-((7-chloro-3,3-dideutero-5-(4-(morpholine-4-carbonyl)phenyl)-2,3-dihydrobenzofuran-2-yl)methyl)acrylamide], the figures for the IC50 with Z138 cells (setting [1]), in the assay on MS751 cells (setting [2]) and in the assay with 3T3 cells (setting [3]) were 0.1 to 5 µM, < 0.1 µM and < 0.1 µM, respectively.

As to `CC(=O)c1ccc(-c2cc(Cl)c3c(c2)CC(CNS(=O)(=O)/C=C/c2cccnc2)O3)s1` (stereo not drawn) [Compound 310, (E)-N-((5-(5-acetylthiophen-2-yl)-7-chloro-2,3-dihydrobenzofuran-2-yl)methyl)-2-(pyridine-3-yl) ethenesulphonamide], the IC50 is 5 to 30 µM in the assay on Z138 cells (Homo sapiens, Z-138, read-out: MTT Assay IC50, Z138); > 30 µM with MS751 cells (Homo sapiens, MS751, read-out: MTT Assay IC50, MS751); > 30 µM in the assay on 3T3 cells (Mus musculus, NIH3T3, read-out: MTT Assay IC50, 3T3).

As for `CC(=O)c1ccc(-c2ccc(Cl)c3c2CC(CNC(=O)/C=C/c2ccc(N)nc2)O3)s1` (stereo not drawn) [Compound 218, hydrochloride], the IC50 in the assay on Z138 cells (setting [1]) was < 0.1 µM; with MS751 cells (setting [2]), < 0.1 µM; with 3T3 cells (setting [3]) it was 5 to 30 µM.
